The target in one experiment is T1, PCSK9Δhelix (Homo sapiens, UniProt Q8NBP7).
T1 construct: Human PCSK9 construct M1-Q692 with an engineered TEV site (residue deletion Y166, R167); made in house; host or cells: CHO
The experiment can be described thus: PCSK9Δhelix/Ab20 TR-FRET binding assay. The following applies: TR-FRET; Table 8E, additional compounds; read-out: PCSK9Δhelix/Ab20 IC50.

The next experiment concerns the target PCSK9 (Homo sapiens, UniProt Q8NBP7). The experiment can be described thus: PCSK9/EGF(A) TR-FRET binding assay. The following applies: TR-FRET; Table 8E, additional compounds; read-out: PCSK9/EGF(A) IC50. On the technique in general: Time-resolved FRET reads energy transfer from a long-lived donor to a nearby acceptor.

Numbered stars: 1 amine (or outer) side, 2 acyl side, 3 side chain; on linkers, the order of the positions; unused ones are H or OH. Square brackets hold non-standard residues; d marks the D form. Peptide text beside a SMILES is read from it. * marks the point of attachment. Propanoyl(3-indol-3-yl) = O=C(CCc1c[nH]c2ccccc12)*; Butyryl(4-indol-3-yl) = O=C(CCCc1c[nH]c2ccccc12)*; Propanoyl(3-(4-F-phenyl)) = O=C(CCc1ccc(F)cc1)*; Propanoyl(3-(3-pyridyl)) = O=C(CCc1cccnc1)*; X1 = O=C([C@H]1CC[C@@H](c2ccccc2)CC1)*; X20 = O=C(c1cc(-c2ccncc2)n[nH]1)*; hArg = N=C(N)NCCCC[C@H](N)C(=O)O; X24 = CN1CCC(n2cc(C(=O)*)cn2)C1; X36 = CC(=O)c1ccc(OCCC(=O)*)cc1; X22 = O=C(C1CC(Cc2ccccc2)C1)*; X6 = O=C(Cn1ccc(=O)[nH]c1=O)*; Suc = O=C(CCC(=O)[*:2])[*:1]; X18 = COc1ccc(OCCC(=O)*)cc1; X12 = O=C(CCCc1ccc(F)cc1)*; X10 = Nc1cccc(CCC(=O)*)c1; X30 = O=C(CCc1cccc(O)c1)*; Morpholide = C1CN(*)CCO1; Pentanoyl = CCCCC(=O)*; X2 = CC(C)(C)CCCC(=O)*; X41 = O=C(CCn1cncn1)*

PCSK9, sequence (Q8NBP7 153-692): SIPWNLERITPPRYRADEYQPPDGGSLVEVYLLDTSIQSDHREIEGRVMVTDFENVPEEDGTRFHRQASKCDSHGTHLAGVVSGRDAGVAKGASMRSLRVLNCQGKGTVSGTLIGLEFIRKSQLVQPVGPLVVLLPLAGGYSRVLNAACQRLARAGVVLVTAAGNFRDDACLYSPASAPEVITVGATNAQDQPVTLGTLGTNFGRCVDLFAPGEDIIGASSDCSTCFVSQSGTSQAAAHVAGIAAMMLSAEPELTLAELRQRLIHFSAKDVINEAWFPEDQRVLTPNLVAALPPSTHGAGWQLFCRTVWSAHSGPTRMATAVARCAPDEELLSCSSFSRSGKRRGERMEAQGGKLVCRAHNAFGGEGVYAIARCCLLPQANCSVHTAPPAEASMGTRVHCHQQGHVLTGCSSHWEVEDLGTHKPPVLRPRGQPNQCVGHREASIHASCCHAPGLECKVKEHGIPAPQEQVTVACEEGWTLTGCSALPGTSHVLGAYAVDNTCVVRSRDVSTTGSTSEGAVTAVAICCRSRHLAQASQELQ
PCSK9, sequence (Q8NBP7 31-152 partner limits assumed): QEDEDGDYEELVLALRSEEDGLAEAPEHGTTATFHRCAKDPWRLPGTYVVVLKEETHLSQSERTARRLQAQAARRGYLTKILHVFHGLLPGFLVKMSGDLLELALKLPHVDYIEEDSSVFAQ
T1 sequence (Q8NBP7 with tags, fused parts or gaps limits assumed): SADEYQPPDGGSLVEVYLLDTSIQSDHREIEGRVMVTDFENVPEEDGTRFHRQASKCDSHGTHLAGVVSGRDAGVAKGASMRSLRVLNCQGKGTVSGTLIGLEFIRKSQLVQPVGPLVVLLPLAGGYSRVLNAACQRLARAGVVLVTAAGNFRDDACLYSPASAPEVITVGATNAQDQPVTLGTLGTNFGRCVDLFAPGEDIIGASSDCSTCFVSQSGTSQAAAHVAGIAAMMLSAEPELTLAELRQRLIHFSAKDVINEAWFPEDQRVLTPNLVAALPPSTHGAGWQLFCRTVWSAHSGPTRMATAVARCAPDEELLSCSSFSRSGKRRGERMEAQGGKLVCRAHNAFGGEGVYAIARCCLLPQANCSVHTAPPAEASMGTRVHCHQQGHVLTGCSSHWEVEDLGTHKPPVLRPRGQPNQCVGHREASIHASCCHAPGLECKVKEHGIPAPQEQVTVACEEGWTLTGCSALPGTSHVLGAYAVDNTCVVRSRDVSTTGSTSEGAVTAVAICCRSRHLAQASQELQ
T1 sequence (Q8NBP7 31-152 partner limits assumed): as the sequence (Q8NBP7 31-152 partner limits assumed) above

On to `CC[C@H](C)[C@H](NC(=O)[C@H](CCCNC(=N)N)NC(=O)[C@@H](NC(=O)[C@H](CC(C)C)NC(=O)[C@H](CC(N)=O)NC(=O)[C@H](Cc1c[nH]c2ccccc12)NC(=O)CCc1cccnc1)C(C)C)C(=O)NCC(=O)N[C@@H](CC(C)C)C(=O)N[C@H](C(=O)N[C@@H](CCCNC(=N)N)C(N)=O)[C@@H](C)O` [Compound 173] ({Propanoyl(3-(3-pyridyl))}-WNLVRIGLTR-NH2), for which the IC50 is 9.8 µM at PCSK9Δhelix and at least 50 µM on PCSK9.

In the case of `CC[C@H](C)[C@H](NC(=O)[C@H](CCCNC(=N)N)NC(=O)[C@@H](NC(=O)[C@H](CC(C)C)NC(=O)[C@H](CC(N)=O)NC(=O)[C@H](Cc1c[nH]c2ccccc12)NC(=O)Cn1ccc(=O)[nH]c1=O)C(C)C)C(=O)NCC(=O)N[C@@H](CC(C)C)C(=O)N[C@@H](CC(C)C)C(=O)N[C@@H](CCCNC(=N)N)C(N)=O` [Compound 143] (X6-WNLVRIGLLR-NH2), the IC50 at PCSK9Δhelix was 23 µM; at PCSK9, at least 50 µM.

Take `CC[C@H](C)[C@H](NC(=O)[C@H](CCCNC(=N)N)NC(=O)[C@@H](NC(=O)[C@H](CC(C)C)NC(=O)[C@H](CC(N)=O)NC(=O)[C@H](Cc1c[nH]c2ccccc12)NC(=O)C1CC(Cc2ccccc2)C1)C(C)C)C(=O)NCC(=O)N[C@@H](CC(C)C)C(=O)N[C@@H](CC(C)C)C(=O)N[C@@H](CCCNC(=N)N)C(N)=O` (stereo partly shown) [Compound 144] (X22-WNLVRIGLLR-NH2): the IC50 at PCSK9Δhelix was determined as 4 µM; at PCSK9 it was 9.7 µM.

Consider `CC[C@H](C)[C@H](NC(=O)[C@H](CCCNC(=N)N)NC(=O)[C@@H](NC(=O)[C@H](CC(C)C)NC(=O)[C@H](CC(N)=O)NC(=O)[C@H](Cc1c[nH]c2ccccc12)NC(=O)CCCC(C)(C)C)C(C)C)C(=O)NCC(=O)N[C@@H](CC(C)C)C(=O)N[C@@H](CC(C)C)C(=O)N[C@@H](CCCNC(=N)N)C(N)=O` [Compound 148] (X2-WNLVRIGLLR-NH2), for which the figures for the IC50 at PCSK9Δhelix and at PCSK9 were 11 µM and 19 µM, respectively.

For the compound `CC[C@H](C)[C@H](NC(=O)[C@H](CCCCNC(=N)N)NC(=O)[C@@H](NC(=O)[C@H](CC(C)C)NC(=O)[C@H](CC(N)=O)NC(=O)[C@H](Cc1c[nH]c2ccccc12)NC(=O)CCOc1ccc(OC)cc1)C(C)C)C(=O)NCC(=O)N[C@@H](CC(C)C)C(=O)N[C@@H](CC(C)C)C(=O)N[C@@H](CCCNC(=N)N)C(N)=O` [Compound 203] (X18-WNLV[hArg]IGLLR-NH2), the IC50 at PCSK9Δhelix came out at 1.6 µM; on PCSK9, 21 µM.

On to `CC[C@H](C)[C@H](NC(=O)[C@H](CCCCNC(=N)N)NC(=O)[C@@H](NC(=O)[C@H](CC(C)C)NC(=O)[C@H](CC(N)=O)NC(=O)[C@H](Cc1c[nH]c2ccccc12)NC(=O)CCc1ccc(F)cc1)C(C)C)C(=O)NCC(=O)N[C@@H](CC(C)C)C(=O)N[C@@H](CC(C)C)C(=O)N[C@@H](CCCNC(=N)N)C(N)=O` [Compound 198] ({Propanoyl(3-(4-F-phenyl))}-WNLV[hArg]IGLLR-NH2), for which the IC50 at PCSK9Δhelix turned out to be 0.25 µM; on PCSK9 it was 1.7 µM.

`CC[C@H](C)[C@H](NC(=O)[C@H](CCCCNC(=N)N)NC(=O)[C@@H](NC(=O)[C@H](CC(C)C)NC(=O)[C@H](CC(N)=O)NC(=O)[C@H](Cc1c[nH]c2ccccc12)NC(=O)CCc1c[nH]c2ccccc12)C(C)C)C(=O)NCC(=O)N[C@@H](CC(C)C)C(=O)N[C@@H](CC(C)C)C(=O)N[C@@H](CCCNC(=N)N)C(N)=O` [Compound 201] ({Propanoyl(3-indol-3-yl)}-WNLV[hArg]IGLLR-NH2): the IC50 on PCSK9Δhelix amounted to 1 µM; at PCSK9, 3.9 µM.

In the case of `CC[C@H](C)[C@H](NC(=O)[C@H](CCCCNC(=N)N)NC(=O)[C@@H](NC(=O)[C@H](CC(C)C)NC(=O)[C@H](CC(N)=O)NC(=O)[C@H](Cc1c[nH]c2ccccc12)NC(=O)CCCc1ccc(F)cc1)C(C)C)C(=O)NCC(=O)N[C@@H](CC(C)C)C(=O)N[C@@H](CC(C)C)C(=O)N[C@@H](CCCNC(=N)N)C(N)=O` [Compound 196] (X12-WNLV[hArg]IGLLR-NH2), the IC50 at PCSK9Δhelix was 1.4 µM; on PCSK9, 7.3 µM.

As to `CCCCC(=O)N[C@@H](Cc1c[nH]c2ccccc12)C(=O)N[C@@H](CC(N)=O)C(=O)N[C@@H](CC(C)C)C(=O)N[C@H](C(=O)N[C@@H](CCCCNC(=N)N)C(=O)N[C@H](C(=O)NCC(=O)N[C@@H](CC(C)C)C(=O)N[C@@H](CC(C)C)C(=O)N[C@@H](CCCNC(=N)N)C(N)=O)[C@@H](C)CC)C(C)C` [Compound 191, n-BuC(O)-WNLV(homoR)IGLLR-NH2] (Pentanoyl-WNLV[hArg]IGLLR-NH2), the IC50 at PCSK9Δhelix is 1.3 µM; on PCSK9, at least 50 µM.

As for `CC[C@H](C)[C@H](NC(=O)[C@H](CCCNC(=N)N)NC(=O)[C@@H](NC(=O)[C@H](CC(C)C)NC(=O)[C@H](CC(N)=O)NC(=O)[C@H](Cc1c[nH]c2ccccc12)NC(=O)CCc1cccc(N)c1)C(C)C)C(=O)NCC(=O)N[C@@H](CC(C)C)C(=O)N[C@H](C(=O)N[C@@H](CCCNC(=N)N)C(N)=O)[C@@H](C)O` [Compound 164] (X10-WNLVRIGLTR-NH2), the values for the IC50 at PCSK9Δhelix and at PCSK9 were 12 µM and at least 50 µM, respectively.

Regarding `CC[C@H](C)[C@H](NC(=O)[C@H](CCCNC(=N)N)NC(=O)[C@@H](NC(=O)[C@H](CC(C)C)NC(=O)[C@H](CC(N)=O)NC(=O)[C@H](Cc1c[nH]c2ccccc12)NC(=O)C1CC(Cc2ccccc2)C1)C(C)C)C(=O)NCC(=O)N[C@@H](CC(C)C)C(=O)N[C@H](C(=O)N[C@@H](CCCNC(=N)N)C(N)=O)[C@@H](C)O` (stereo partly shown) [Compound 184] (X22-WNLVRIGLTR-NH2), the results for the IC50 at PCSK9Δhelix and at PCSK9 were 12 µM and 19 µM, respectively.

In the case of `CC[C@H](C)[C@H](NC(=O)[C@H](CCCNC(=N)N)NC(=O)[C@@H](NC(=O)[C@H](CC(C)C)NC(=O)[C@H](CC(N)=O)NC(=O)[C@H](Cc1c[nH]c2ccccc12)NC(=O)c1cnn(C2CCN(C)C2)c1)C(C)C)C(=O)NCC(=O)N[C@@H](CC(C)C)C(=O)N[C@@H](CC(C)C)C(=O)N[C@@H](CCCNC(=N)N)C(N)=O` (stereo partly shown) [Compound 129] (X24-WNLVRIGLLR-NH2), the values for the IC50 on PCSK9Δhelix and on PCSK9 were 23 µM and at least 50 µM, respectively.

Consider `CC[C@H](C)[C@H](NC(=O)[C@H](CCCNC(=N)N)NC(=O)[C@@H](NC(=O)[C@H](CC(C)C)NC(=O)[C@H](CC(N)=O)NC(=O)[C@H](Cc1c[nH]c2ccccc12)NC(=O)CCc1c[nH]c2ccccc12)C(C)C)C(=O)NCC(=O)N[C@@H](CC(C)C)C(=O)N[C@H](C(=O)N[C@@H](CCCNC(=N)N)C(N)=O)[C@@H](C)O` [Compound 189] ({Propanoyl(3-indol-3-yl)}-WNLVRIGLTR-NH2), for which the IC50 at PCSK9Δhelix stood at 12 µM; at PCSK9, 38 µM.

Turning to `CC[C@H](C)[C@H](NC(=O)[C@H](CCCCNC(=N)N)NC(=O)[C@@H](NC(=O)[C@H](CC(C)C)NC(=O)[C@H](CC(N)=O)NC(=O)[C@H](Cc1c[nH]c2ccccc12)NC(=O)CCC(=O)N1CCOCC1)C(C)C)C(=O)NCC(=O)N[C@@H](CC(C)C)C(=O)N[C@@H](CC(C)C)C(=O)N[C@@H](CCCNC(=N)N)C(N)=O` [Compound 194] ({Morpholide-Suc}-WNLV[hArg]IGLLR-NH2), the values for the IC50 at PCSK9Δhelix and at PCSK9 were 1.9 µM and at least 50 µM, respectively.

Turning to `CC[C@H](C)[C@H](NC(=O)[C@H](CCCCNC(=N)N)NC(=O)[C@@H](NC(=O)[C@H](CC(C)C)NC(=O)[C@H](CC(N)=O)NC(=O)[C@H](Cc1c[nH]c2ccccc12)NC(=O)[C@H]1CC[C@@H](c2ccccc2)CC1)C(C)C)C(=O)NCC(=O)N[C@@H](CC(C)C)C(=O)N[C@@H](CC(C)C)C(=O)N[C@@H](CCCNC(=N)N)C(N)=O` [Compound 208] (X1-WNLV[hArg]IGLLR-NH2), the IC50 was 0.1 µM at PCSK9Δhelix and 0.45 µM at PCSK9.

As to `CC[C@H](C)[C@H](NC(=O)[C@H](CCCNC(=N)N)NC(=O)[C@@H](NC(=O)[C@H](CC(C)C)NC(=O)[C@H](CC(N)=O)NC(=O)[C@H](Cc1c[nH]c2ccccc12)NC(=O)CCn1cncn1)C(C)C)C(=O)NCC(=O)N[C@@H](CC(C)C)C(=O)N[C@@H](CC(C)C)C(=O)N[C@@H](CCCNC(=N)N)C(N)=O` [Compound 142] (X41-WNLVRIGLLR-NH2), the IC50 at PCSK9Δhelix is 15 µM; on PCSK9, at least 50 µM.

For `CC[C@H](C)[C@H](NC(=O)[C@H](CCCNC(=N)N)NC(=O)[C@@H](NC(=O)[C@H](CC(C)C)NC(=O)[C@H](CC(N)=O)NC(=O)[C@H](Cc1c[nH]c2ccccc12)NC(=O)CCc1cccc(O)c1)C(C)C)C(=O)NCC(=O)N[C@@H](CC(C)C)C(=O)N[C@H](C(=O)N[C@@H](CCCNC(=N)N)C(N)=O)[C@@H](C)O` [Compound 168] (X30-WNLVRIGLTR-NH2), the figures for the IC50 on PCSK9Δhelix and on PCSK9 were 7.8 µM and at least 50 µM, respectively.

As for `CC[C@H](C)[C@H](NC(=O)[C@H](CCCCNC(=N)N)NC(=O)[C@@H](NC(=O)[C@H](CC(C)C)NC(=O)[C@H](CC(N)=O)NC(=O)[C@H](Cc1c[nH]c2ccccc12)NC(=O)CCOc1ccc(C(C)=O)cc1)C(C)C)C(=O)NCC(=O)N[C@@H](CC(C)C)C(=O)N[C@@H](CC(C)C)C(=O)N[C@@H](CCCNC(=N)N)C(N)=O` [Compound 205] (X36-WNLV[hArg]IGLLR-NH2), the values for the IC50 at PCSK9Δhelix and on PCSK9 were 0.64 µM and 2.8 µM, respectively.

Turning to `CC[C@H](C)[C@H](NC(=O)[C@H](CCCNC(=N)N)NC(=O)[C@@H](NC(=O)[C@H](CC(C)C)NC(=O)[C@H](CC(N)=O)NC(=O)[C@H](Cc1c[nH]c2ccccc12)NC(=O)c1cc(-c2ccncc2)n[nH]1)C(C)C)C(=O)NCC(=O)N[C@@H](CC(C)C)C(=O)N[C@H](C(=O)N[C@@H](CCCNC(=N)N)C(N)=O)[C@@H](C)O` [Compound 188] (X20-WNLVRIGLTR-NH2), the IC50 came to 7.6 µM at PCSK9Δhelix and 22 µM at PCSK9.

`CC[C@H](C)[C@H](NC(=O)[C@H](CCCCNC(=N)N)NC(=O)[C@@H](NC(=O)[C@H](CC(C)C)NC(=O)[C@H](CC(N)=O)NC(=O)[C@H](Cc1c[nH]c2ccccc12)NC(=O)CCCc1c[nH]c2ccccc12)C(C)C)C(=O)NCC(=O)N[C@@H](CC(C)C)C(=O)N[C@@H](CC(C)C)C(=O)N[C@@H](CCCNC(=N)N)C(N)=O` [Compound 200] ({Butyryl(4-indol-3-yl)}-WNLV[hArg]IGLLR-NH2): the figures for the IC50 at PCSK9Δhelix and on PCSK9 were 0.67 µM and 3.2 µM, respectively.

Values taken from US11034725B2, “Compositions and methods for treating cardiovascular disease” (Genentech, Inc., priority 2016, dated 2021).
